Results from patent publication US7833795B2, “Assessment of cardiovascular risk using isoprostane biomarkers and COX-2 selective inhibitors” (The Trustees of the University of Pennsylvania, priority 2004, dated 2010).

Legend:
Male Fisher 344 rats [1] = assay: Plasma MDA, TBA colorimetric assay with 3rd derivative spectroscopy; format: in vivo, rat; conditions: indomethacin pretreatment
Description: (§1) Animals and treatment protocol: Male Fisher 344 rats (260-280 g) obtained from Charles River Laboratories (Raleigh, N.C.) were used in all experiments. The animals were housed three to a cage. Autoclaved hardwood bedding was used in solid-bottom polycarbonate cages with filter tops. Animal rooms were maintained at 20-25° C. with 35-70% relative humidity with alternating 12-hour light and dark cycles. The rats had free access to deionized, reverse-osmosis-treated water and received autoclaved NIH 31 rodent chow (Zeigler Bros., Gardners, Pa.) ad libitum. For all experiments, rats were fasted overnight and then administered intraperitoneal injections of carbon tetrachloride in canola oil. Control rats received an equal volume of canola oil. Fasting continued throughout the experiment. Rats were anesthetized with Nembutal (0.1 ml/100 g body weight) and 5 ml blood was removed from the dorsal aorta proximal to its bifurcation into the common iliac arteries.
(§2) Carbon tetrachloride (CCL4) treatment: Animals from each of the three dose groups (Control-canola oil, 120 mg/kg CCl4 i.p. and 1200 mg/kg CCl4 i.p.) were investigated at three time points (2, 7, and 16 hours after CCl4 injection). Indomethacin-pretreated rats were also investigated at the same three time points, and the meclofenamic acid-pretreated rats were investigated at one time point (7 hours). Each group consisted of five rats for each analysis, except the meclofenamic acid pretreatment group which consisted of six rats. Animal treatment, sample preparation, assessment of liver histology and serum enzyme activities are described elsewhere (Kadiiska et al., 2000, Free Radic. Biol. Med. 28: 838-845; Jackson, 1989, J. Pharmacol. Exp. Ther. 250: 9-21) and were carried out at NIEHS, Research Triangle Park, N.C.
(§3) Plasma sample preparation: Blood (5 ml) was drawn through single draw Vacutainer® needles (21 Gauge) into open Vacutainer® blood collection tubes containing heparin. The tubes were gently inverted 2-3 times for mixing and immediately placed on ice. Blood was centrifuged (2,000 rpm for 10 minutes at 4° C.) no more than 30 minutes after collection, and the plasma was collected, frozen on dry ice and stored at −70° C.
Two colorimetric-based assays, using third derivative spectroscopy, were also used to measure MDA in plasma. The TBA colorimetric assay is designed to measure free MDA and MDA-protein adducts (Schiff base), and therefore includes mild acid hydrolysis. The Bioxytech® LPO-586™ colorimetric assay is based upon the reaction of the chromogenic reagent N-methyl-2-phenylindole (NMPI) with MDA at 45° C. One molecule of free MDA combines with 2 molecules of the chromogenic agent to produce a stable chromophore with a maximal absorbance at 586 nm. In both assays, the concentration of MDA was determined with 3rd derivative spectroscopy. Both assays were developed by OXIS Research Inc., Portland, Oreg., and were performed at OXIS and at Loyola University Medical Center, Maywood, Ill.

Male Fisher 344 rats [2] = assay: Plasma MDA by GC/NICI-MS; format: in vivo, rat; conditions: indomethacin pretreatment; controls at 7 and 16 h, lower CCl4 dose at 2 and 16 h
Description: as §1
(§4) Indomethacin pretreatment: The indomethacin regimen used has been previously shown to inhibit COX activity in rats by 90% (dose of 5 mg/kg s.c. 24 hours, 12 hours, and 2 hours prior to the injection of CCl4) (Jackson, 1989, J. Pharmacol. Exp. Ther. 250: 9-21). An additional booster dose was injected 8 hours after the last injection of CCl4 for the measurements performed 16 hours after treatment with CCl4.
as §2, §3
Plasma MDA concentrations were also measured by using gas chromatography/negative ion chemical ionization mass spectroscopy (GC/NICI-MS) as described by Yeo et al. (Yeo et al., 1994, Anal. Biochem. 220: 391-396). The stable isotope internal standard [^2H2] MDA and an antioxidant (2,6-tert-butyl-4-methylphenol) were added to the plasma samples. The samples were then incubated at room temperature in 6.6 mol H2SO4 for 10 minutes to hydrolyze the aldehydes from the proteins. Plasma MDA was converted to a stable pentafluorophenyl hydrazine derivative which was quantified by using the GC-MS in the negative chemical ionization mode. The assay was performed at Children's Hospital Oakland Research Institute, Oakland, Calif.

Male Fisher 344 rats [3] = assay: Plasma free plus esterified 8-iso-PGF2α by GC/MS; format: in vivo, rat
Description: as §1, §4
(§5) Meclofenamic acid pretreatment: Meclofenamic acid was injected at a dose of 5 mg/kg i.p. 12 h and 2 h prior to the injection of CCl4.
as §2, §3
Measurement of the sum of free plus esterified 8-iso-PGF2α in plasma were performed using an improved GC/MS-based analysis for the quantitation of this isoprostane in plasma. A detailed protocol for this extraction and quantitation has been published (Parker et al., 2001, Mol. Biotechnol. 18: 105-118). Measurements of the sum of free plus esterified 8-iso-PGF2α in plasma were performed at NIEHS, Research Triangle Park, N.C.

Male Fisher 344 rats [4] = assay: Urinary MDA by HPLC with spectrophotometry; format: in vivo, rat; conditions: for urinary MDA: meclofenamic acid pretreatment
Description: as §1, §4, §5, §2
(§6) Urine sample preparation: The day prior to treatment, both experimental and control animals were placed in stainless steel metabolic cages especially designed for urine collection. For Experimental Example 2, animals were placed in metabolic cages immediately after the last injection of indomethacin or meclofenamic acid. Urine was collected (in dark vials) from the animals during the following intervals: 2 to 7 hours and 7 to 16 hours after CCl4 or canola oil (controls) treatment. Urine samples from indomethacin-pretreated rats were collected from 2 to 7 hours and 7 to 16 hours after the injection of CCl4, whereas samples from meclofenamic-acid-pretreated rats were collected only from 2 to 7 hours after the injection. All urine samples were immediately frozen on dry ice and stored at −70° C.
Urinary MDA was analyzed using high pressure liquid chromatography (HPLC). To 500 μl urine samples, 25 μl BHT and 750 μl 0.5% TBA solution were added, in this order. Samples were incubated at 60° C. for 60 minutes. After cooling, chloroform (750 μl) was added and mixed well. Following centrifugation, the aqueous layer was removed and used for HPLC analysis (column […]; mobile phase, 6:4(v/v) 0.04 M acetate buffer (pH 5.5)/MeOH; detection, 532 nm). The procedure was developed and performed by OXIS Research, Portland, Oreg.

Male Fisher 344 rats [5] = assay: Urinary free plus esterified 8-iso-PGF2α by immunoassay; format: in vivo, rat
Description: as §1, §4, §5, §2, §6
Urinary 8-iso-PGF2α concentrations were measured by the competitive immunoassay procedure in which 8-iso-PGF2α conjugated to alkaline phosphatase competed with the test analyte for antibody specific for the isoprostane. The anti-8-iso-PGF2α antibody was captured by anti-Fc antibodies immobilized on a microtiter plate. The assay was developed by Assay Designs, Inc., Ann Arbor, Mich. and performed at OXIS Research, Portland, Oreg.
In an additional method not recited in Example 1, an immunoassay was used to measure the sum of free plus esterified 8-iso-PGF2α. The immunoassay used anti-8-iso-PGF2α antibody was developed by Assay Designs, Inc., Ann Arbor, Mich., and performed at Oxis Research, Portland, Oreg.

Male Fisher 344 rats [6] = assay: Urinary 8,12-iso-iPF2α-VI by LC/MS/MS; format: in vivo, rat; conditions: for urinary 8,12-iso-iPF2α-VI, pretreated vs non-pretreated: indomethacin pretreatment
Description: as §1, §4, §5, §2, §6
Analysis of 8,12-iso-iPF2α-VI, which is, along with its epimer 5-epi-8,12-iso-iPF2α-VI, the most prevalent PGF-ring isoprostane in human urine, was accomplished by addition of a tetradeuterated analog, solid phase extraction and quantitation using liquid chromatography and tandem mass spectroscopy (LC/MS/MS) (Li et al., 1999, Proc. Natl. Acad. Sci. USA 96: 13381-13386). The measurements were performed at the University of Pennsylvania, Philadelphia, Pa.

COX = conditions: 5 mg/kg s.c. 24, 12 and 2 hours prior to CCl4; cited from earlier work
Male Fisher 344 rats [7] = assay: Plasma free 8-iso-PGF2α by GC/NICI-MS; format: in vivo, rat; conditions: meclofenamic acid 5 mg/kg i.p. pretreatment; only higher CCl4 dose, 7 h
Description: as §1, §4, §5, §2, §3
Two slightly different methods developed in two different laboratories were used to measure the effect of CCl4 on the plasma levels of free 8-iso-PGF2α, and the sum of free plus esterified 8-iso-PGF2α (also known as 8-epi-PGF2α and iPF2α-III and 15-F2t-IsoP). Free 8-iso-PGF2α concentrations in plasma were determined by gas chromatography/negative ion chemical ionization mass spectrometry (GC/NICI-MS) by the method of Morrow et al. (1999, Methods Enzymol. 300: 3-12). Briefly, [2H4] 8-iso-PGF2α internal standard was added to plasma and F2-isoprostanes were extracted with a C18 Sep-Pak® Cartridge (Waters Associates, Milford, Mass.). The extracted F2-isoprostanes were converted to pentafluorobenzyl ester and purified by TLC after which they were converted to a trimethylsilyl ether derivative and subsequently analyzed by GC-MS. The assay was developed and performed at Vanderbilt University, Nashville, Tenn.

Male Fisher 344 rats [8] = assay: Urinary free 8-iso-PGF2α by radioimmunoassay; format: in vivo, rat
Description: as §1, §5
as §2, with “N.C. […]” for “N.C.”
In Experimental Example 2, urine samples were also analyzed for free 8-iso-PGF2α, without any extraction, by radioimmunoassay (Basu, 1998, Prost. Leuk. Ess. Fatty Acids. 58: 319-325). […]

[9] = meclofenamic acid pretreatment, 7 h

Compound: COc1ccc2c(c1)c(CC(=O)O)c(C)n2C(=O)c1ccc(Cl)cc1 [indomethacin, 1-[p-chlorobenzoyl]-5-methoxy-2-methylindole-3-acetic acid]
- plasma MDA (third derivative spectroscopy), pretreated vs non-pretreated (Male Fisher 344 rats [1]): similarly decreased
- plasma MDA (GC/MS), pretreated vs non-pretreated rats (Male Fisher 344 rats [2]): statistically significant decrease
- plasma free plus esterified 8-iso-PGF2α, pretreated vs non-pretreated (Male Fisher 344 rats [3]; indomethacin pretreatment, only higher CCl4 dose at 2 and 7 h): statistically significant suppression
- urinary MDA, pretreated vs non-pretreated (Male Fisher 344 rats [4]; indomethacin pretreatment, controls and low-dose CCl4, both time points): increase in MDA excretion
- urinary free plus esterified 8-iso-PGF2α (immunoassay), pretreated vs non-pretreated (Male Fisher 344 rats [5]; indomethacin pretreatment, controls at 7 h, higher CCl4 dose at both time points): Suppression
- urinary 8,12-iso-iPF2α-VI, pretreated vs non-pretreated (Male Fisher 344 rats [6]; controls, earlier time point): increased
- urinary 8,12-iso-iPF2α-VI, pretreated vs non-pretreated (Male Fisher 344 rats [6]; higher dose CCl4): markedly inhibited
- urinary 8,12-iso-iPF2α-VI, pretreated vs non-pretreated (Male Fisher 344 rats [6]; low dose CCl4): no effect
- inhibition of COX activity in rats (COX): 90%

Compound: Cc1ccc(Cl)c(Nc2ccccc2C(=O)O)c1Cl [meclofenamic acid]
- plasma free plus esterified 8-iso-PGF2α, effect compared with that on free 8-iso-PGF2α (Male Fisher 344 rats [3]; [9]): similar
- plasma free 8-iso-PGF2α, pretreated vs non-pretreated (Male Fisher 344 rats [7]): significant decrease
- urinary MDA (Male Fisher 344 rats [4]; higher dose of CCl4, 7 h): significant inhibition
- urinary MDA (Male Fisher 344 rats [4]; low dose of CCl4, 7 h): increased
- urinary free plus esterified 8-iso-PGF2α (immunoassay), pretreated vs non-pretreated (Male Fisher 344 rats [5]; meclofenamic acid pretreatment, high CCl4 dose, 7 h): significant decrease
- CCl4-induced urinary 8,12-iso-iPF2α-VI (Male Fisher 344 rats [6]; [9]): increased
- basal urinary free 8-iso-PGF2α (radioimmunoassay) vs control group (Male Fisher 344 rats [8]; meclofenamic acid-treated rats, no CCl4): lower basal levels
- urinary free 8-iso-PGF2α (radioimmunoassay) (Male Fisher 344 rats [8]; meclofenamic pretreatment, both doses of CCl4, 7 h): increased
